The source of these data is PMC12689647, “Evaluation of bromadiolone combined with ciprofloxacin, vitamin D, aspirin, and cinnamon as an apoptosis-mediated rodenticide strategy” (Scientific Reports, 2025).

Each structure is given as a SMILES string.

The test system of one experiment is liver cells. The experiment is described as follows: Apoptosis estimation by acridine orange fluorescence staining. The experiment is classed as in vivo, Rattus norvegicus. Particulars: AO staining, oral, 21 days. As for the experimental part:
(§1) Adult male rats (n = 7 × 9 = 63), weighing 150–200 g, were randomized and divided into seven groups. Group I served as the control. Group II received the vehicle control (0.1 ml/100 g ethanol). Group III was treated with bromadiolone (B) at ½ LD₅₀ (0.8 mg/kg)[28]. Group IV received bromadiolone (0.8 mg/kg) + ciprofloxacin (Anti.20 mg/kg)[29]. Group V received bromadiolone (0.8 mg/kg) + ciprofloxacin (20 mg/kg) + vitamin D (Vit. D 35 mg/kg)[30]. Group VI received bromadiolone (0.8 mg/kg) + ciprofloxacin (20 mg/kg) + vitamin D (35 mg/kg) + cinnamon (Cin. 2 g/kg)[31]. Group VII received bromadiolone (0.8 mg/kg) + ciprofloxacin (20 mg/kg) + vitamin D (35 mg/kg) + aspirin (A. 150 mg/kg)[32]. All doses were administered orally to wild rats over 21 days. The chemical we used for the euthanizing process: rats were narcotized by Ketamine + xylazine injection (IP) and then sacrificed by slaughtering.
Before staining with 0.01% acridine orange (AO) (stock solution: 0.1% AO in distilled water, diluted with phosphate buffer to a staining solution at pH 7.2), the sample was quickly passed through a graded alcohol series (80 − 50%) followed by distilled water. […] Acridine orange emits sharp green fluorescence when bound to DNA (apoptosis).

The next experiment deals with cleaved caspase-3. Description: Western blot of liver tissue, cleaved caspase-3. In kind it is in vivo, Rattus norvegicus. Particulars: Western blot normalized to β-actin, oral, 21 days. As for the experimental part: as §1
For the immunodetection and quantification of proteins such as p21 and cleaved caspase-3, markers of apoptotic cell death under various treatments, liver tissue was homogenized using RIPA lysis buffer. The samples were chopped and briefly sonicated on ice, and protein concentration was measured. Proteins (20 µg) were separated using SDS-PAGE and transferred to a nitrocellulose membrane. […] The optical densities of the bands were quantified and normalized to β-actin (1:5000) using ImageJ software.
Background: Immunoblotting shows a protein as a band on a membrane.

For the molecule `O=c1oc2ccccc2c(O)c1C(CC(O)c1ccc(-c2ccc(Br)cc2)cc1)c1ccccc1` (stereo not drawn) [Bromadiolone], in the experiment with liver cells, the “decrease in normal cells compared to the control” value is 18.66% and the “increase in apoptotic cells compared to the control” value is on record as 109.72%. In addition, the “increase in cleaved caspase-3 level compared to the control” value in the experiment with cleaved caspase-3 was determined as 75.92%.
